Data on one substance can be found in patent publication US5716934A, “Eck receptor ligands” (Amgen Inc., priority 1995, dated 1998).

The assay deals with eck receptor (p130^eck). As to the kind of experiment: p130eck autophosphorylation in LIM 2405 cells. The assay is classed as cell-based, human. Particulars: for eck receptor phosphorylation: intact LIM 2405 cells, 10-15 min at 37° C. How it is done:
The LIM 2405 colorectal carcinoma cell line (Whitehead et al. Immunol. and Cell Biol. 70, 227 (1992)) was maintained in RPMI 1640 containing 5% FBS, 1 μg/ml insulin, 10 μg/ml hydrocortisone and 10 μM α-thioglycerol, and subpassaged by trypsination and dilution (1:5) into fresh media. Prior to assay 2.5×10^5 LIM 2405 cells were seeded into 6-well dishes (Falcon #3046) and incubated for 24 hr at 37° C. The media was discarded and replaced with serum-free RPMI 1640 containing 0.03% BSA, 1 μg/ml insulin, 10 μg/ml hydrocortisone and 10 μM α-thioglycerol, then incubated for 12-18 hr. In some experiments the cell cultures were labelled with ^32 P-orthophosphate (2 mCi/ml) in phosphate-free RPMI 1640 (Flow) for 2-3 hr prior to treatment. Growth factor stock solutions were prediluted at varying concentrations into 2.0 ml of serum-free media, then warmed to 37° C. Cell cultures were removed from the incubator, and the supernatant media discarded. Treatments were promptly added and the cell cultures incubated at 37° C. for 10-15 min. The cultures were then removed from the incubator, placed on ice, and the culture supernatant aspirated.
The treated cell cultures were chilled to 0° C. then washed once with ice-cold PBS (GIBCO). The residual PBS was aspirated and the cells were lysed by the addition of 1.0 ml of ice-cold RIPA buffer (10 mM sodium phosphate, pH 7.4, 150 mM sodium chloride, 0.1% sodium dodecyl sulfate, 1% NP-40, 1% deoxycholate, 1% Trasylol, 2 mM EDTA, 50 mM sodium fluoride and 100 mM sodium orthovanadate). After a 10 min incubation the lysates were transferred to 1.5 ml tubes and clarified by centrifugation for 30 min at 10,000×g. The clarified lysate supernatants were transferred to new tubes and immunoprecipitated with 1.0 μg/ml of affinity purified rabbit anti-Eck C-terminal domain antibody for 2 hr at 0° C. Immune complexes were adsorbed to Protein-G Sepharose beads (Pharmacia) at 4° C. for 30 min, washed twice with ice-cold RIPA buffer, once with 0.1M Tris-HCl, pH 8.0, containing 0.5M LiCl, and once with RIPA. The resulting immunoprecipitates were solubilized with SDS-PAGE sample buffer and stored for further analysis.
The anti-eck immunoprecipitates from treated and untreated LIM 2405 cell lysates were resolved on 7.5% polyacrylamide gels as previously described (Boyle et al. Meth. Enzymol. 201, 110 (1991)). […] Immune complexes were detected by chemiluminescent exposure (ECL, Amersham) to Kodak X-OMAT X-ray film at room temperature for 0.5-5 min.
Eck receptor immunoprecipitates from ^32 P-labelled LIM 2405 cells were resolved by SDS-PAGE, and the gel dried directly without fixation. After exposure to X-ray film the labelled eck receptor band was isolated and phosphoamino acid content determined as described (Boyle et al. Meth. Enzymol. 201, 110 (1991))

For “CHO-EBP: recombinant EBP purified from supernatants of CHO cells transfected with the EBP gene; mainly EBP^1-150 and EBP^1-159”, under “LIM 2405 cells after exposure to soluble EBP”, the “total cellular eck protein levels” value is reported as “modest dose-dependent decrease”. For the same substance, the eck receptor phosphorylation result is, setting by setting: (listed as CHO cell-derived rEBP) “stimulated eck receptor phosphorylation”; (listed as CHO-derived rEBP) “active in inducing phosphorylation”.
